Earlier results in patent US20090197966A1, “Use of Hypothermia Inducing Drugs” (priority 2006, published 2009).
Like-named read-outs stand apart in the source and are kept apart here.

Test system: TRPV1 receptor
Conditions: systemic administration

COc1cc(CNC(=O)CCCC/C=C/C(C)C)ccc1O [capsaicin, 8-methyl-N-vallilyl-6-nonenamide]
hypothermic response (mammals): dramatic hypothermic response
hypothermic response (mice lacking the TRPV1 gene): absent
